From patent US20240091366A1, “NOVEL ACID-SENSITIVE APTAMER TRIPTOLIDE CONJUGATE AND APPLICATIONS” (priority 2022, published 2024)
Values joined by “and” are separate entries in the source; they are usually repeats but may differ in a detail not shown here. Equal entries are not always repeated.

Columns and labels:
[1] = Body weight during administration, colon cancer model; conditions: HCT116 model, during 8 times of administration
Procedure: (§1) Female nude mice were reared for 6-7 weeks under standard environment, colon cancer cells HCT116 were suspended in serum-free medium, and each mouse was inoculated with 5*10^6 tumor cells. When the tumor volume reached 50-100 mm^3, the mice were randomly divided into 4 groups, and were injected with aptamer triptolide conjugate, triptolide, and aptamer by tail vein, respectively, 12 mice in each group. A PBS negative control group was set up. […] The drugs were administered once every 2 days for 8 consecutive doses, and the experiment was ended 24 hours after the last dose. At the end of the experiment, the animals were executed by breaking the cervical vertebrae, and the tumors were stripped and weighed to calculate the tumor growth inhibition rate of the drug. The t-test was used to compare the tumor weight, tumor volume, RTV and other indexes of the animals in each group.

[2] = system: human embryonic kidney cells HEK293; test: MTT assay, cytotoxicity on normal cells; assay type: cell-based; conditions: for cell proliferation inhibition rate: 48 h, samples 1-3
Procedure: (§2) The same materials as those in Part II above are not repeated here, in addition to the following: human normal hepatocytes LO2, human embryonic kidney cells HEK293 were purchased from the Shanghai Cell Bank of the Chinese Academy of Sciences and preserved in our laboratory.
(§3) Take the […] LO2 and HEK293 cell lines from the liquid nitrogen tank, place them in a 37° C. water bath, wait for the frozen cells to melt into cell suspension, centrifuge the cells at 1000 r/min for 3 min, discard the supernatant, add 1 ml of fresh complete medium containing 10% fetal bovine serum and 1% double antibody to mix the cells, then add 5 ml of medium, gently and repeatedly blowing the cells with a pipette gun to make them mix well. Then add 5 ml of medium, blow the cells gently and repeatedly with a pipette gun to mix them well, and finally transfer the cell suspension to a […] and label the cell name, cell number, date of resuscitation and the operator's name, and place it in a cell culture incubator for cultivation. (HEK293 cell line was cultured with DMEM medium, LO2 cell line was cultured with RPMI1640 medium)
(§4) Take LO2 and HEK293 cells with good growth status, remove the medium, add 1 ml of sterile PBS to wash, add 1.5 ml of trypsin to digest the cells, about 2 min later the cells become round and fall off, add 1.5 ml of medium to terminate the digestion, transfer it to centrifugal tube, centrifuge at 1000 r/min for 3 min, discard the supernatant, add 1 ml of fresh medium to resuspend, then add fresh medium for 1:3 distribution to other culture dishes, and label the date of transmission and the number of generations. Place in the cell culture incubator for cultivation.
(§5) Take LO2 and HEK293 cells with good growth status, by the same operation as the cell passaging experiment, after cell resuspension, cell counting with hemocyte counting plate, with 3000 cells/well, plant in 96-well plate, after 24 h of cell culture, remove the original medium, add medium containing different concentrations of drugs and continue to cultivate for 48 hours. After 24 h of cell culture, the original medium was removed and the medium containing different concentrations of drugs was added to continue the culture for 48 hours. […] The above steps were repeated three times.

[3] = system: human normal hepatocytes LO2; test: MTT assay, cytotoxicity on normal cells; assay type: cell-based; conditions: for cell proliferation inhibition rate: 48 h, samples 1-3
Procedure: as §2, §3, §4, §5

[4] = Body weight during administration, lung cancer model; conditions: A549 model, during 8 times of administration
Procedure: as §1, with “Experimental protocol: Female” for “Female”, “lung” for “colon”, “cell line A549” for “cells HCT116”, “6*10^6” for “5*10^6”

[5] = Body weight during administration, breast cancer model; conditions: MDA-MB-231 model, during 8 times of administration
Procedure: as §1, with “Specific experimental protocol: Female” for “Female”, “breast” for “colon”, “MDA-MB-231” for “HCT116”, “6*10^6” for “5*10^6”

[6] = system: breast cancer cells MDA-MB-231; test: In vivo antitumor activity, breast cancer xenograft in nude mice; set-up: species or system mouse; Tumor weight: unit not given here; conditions: MDA-MB-231 model, once every 2 days, 8 doses
Description: The following are the in vivo activity studies conducted in different tumor-bearing mice:
The materials used in the experiments were the same as those tested in 5.1 Colon cancer cell lines, differing only in the tumor strains.
A PBS negative control group was set up.

## AS1411: nucleolin aptamer, single-stranded oligonucleotide, SEQ ID NO: 1 GGTGGTGGTGGTTGTGGTGGTGGTGG
[1]
  body weights of mice: basically maintained in the tolerable range of animal toxicity and side-effects
[2]; HEK293
  inhibitory effect on normal cells: no significant inhibitory effect
[2]; HEK293, 6.3 nM, 0.0063 µM
  cell proliferation inhibition rate: 1.4844 and 1.0633 and 2.0955
[2]; HEK293, 12.5 nM, 0.0125 µM
  cell proliferation inhibition rate: 2.3262 and 2.9846 and 3.9285
[2]; HEK293, 25.0 nM, 0.025 µM
  cell proliferation inhibition rate: 4.6088 and 4.6251 and 5.5956
[2]; HEK293, 50.0 nM, 0.05 µM
  cell proliferation inhibition rate: 5.9341 and 4.5183 and 7.0200
[2]; HEK293, 100.0 nM, 0.1 µM
  cell proliferation inhibition rate: 9.5603 and 9.9858 and 6.6667
[2]; HEK293, 200.0 nM, 0.2 µM
  cell proliferation inhibition rate: 13.0496 and 11.5603 and 7.0200
[3]; LO2
  inhibitory effect on normal cells: no significant inhibitory effect
[3]; LO2, 6.3 nM, 0.0063 µM
  cell proliferation inhibition rate: 2.1198 and 1.5844 and 2.2503
[3]; LO2, 12.5 nM, 0.0125 µM
  cell proliferation inhibition rate: 3.1924 and 2.7446 and 2.0042
[3]; LO2, 25.0 nM, 0.025 µM
  cell proliferation inhibition rate: 4.5962 and 5.2695 and 5.1506
[3]; LO2, 50.0 nM, 0.05 µM
  cell proliferation inhibition rate: 7.3070 and 6.4174 and 7.0396
[3]; LO2, 100.0 nM, 0.1 µM
  cell proliferation inhibition rate: 7.6842 and 6.8369 and 7.5344
[3]; LO2, 200.0 nM, 0.2 µM
  cell proliferation inhibition rate: 8.3084 and 8.0987 and 13.5426
[4]
  body weights of mice: basically maintained in the tolerable range of animal toxicity and side-effects
[5]
  body weights of mice: basically maintained in the tolerable range of animal toxicity and side-effects
[6]; 10 μM tail vein
  RTV: 39.29 ± 16
  T/C (%): 94.79%
  Tumor inhibition rate (%): 7.00%
  Tumor weight: 3.19 ± 0.27
[6]; 30 μM tail vein
  RTV: 37.55 ± 34
  T/C (%): 90.59%
  Tumor inhibition rate (%): 14.87%
  Tumor weight: 2.92 ± 0.39
[6]; 50 μM tail vein
  RTV: 35.19 ± 38
  T/C (%): 84.90%
  Tumor inhibition rate (%): 18.95%
  Tumor weight: 2.78 ± 0.41
